Data from paper PMC4979471 (Cell Death Discovery, 2015).
Entries after “also recorded” stand apart in the source; their conditions may differ. Read-outs that look alike come from different tables or passages of the source.

Legend:
RIP1 kinase = molecular target: T1, RIP1 kinase (Homo sapiens, UniProt Q13546); test: ADP-Glo kinase assay; type: biochemical
T1 construct: 10 nM GST-RIPK1 (1–375) and 50 μM ATP; made in house
Experimental: Compound potency against RIP1 kinase activity was determined using an ADP-Glo luminescence assay, which measures the conversion of ATP to ADP as previously described.[18] In brief, the primary reaction consisted of 10 nM GST-RIPK1 (1–375) and 50 μM ATP in 50 mM HEPES pH 7.5, 50 mM NaCl, 30 mM MgCl2, 1 mM DTT, 0.5 mg/ml BSA, and 0.02% CHAPS. Five microliter of enzyme and 5 μl of ATP were added to the plate at twice the final assay concentration and incubated at room temperature for 4 h. The luminescence was measured on a plate reader. Test compound inhibition was expressed as percent inhibition of internal assay controls.

[1] = cited from earlier work
[2] = test system: indoleamine-2,3-dioxygenase (IDO); settings: cited from earlier work
C57BL/6 mice = test: TNF+zVAD-induced shock model (temperature loss); type: in vivo, mouse; settings: 15 min before TNF+zVAD
Experimental: Temperature was monitored over the course of 3 h by rectal probe.

[3] = Pharmacokinetic profile after i.p. administration; type: in vivo, C57BL/6 mice; settings: 10 mg/kg i.p., mice
Experimental: Briefly, pharmacokinetic studies were conducted using n=3 animals per group for each compound. […] Blood samples were obtained at various time points following intraperitoneal injection and diluted 1 : 1 with water prior to storage at −80 °C.
Prior to bioanalysis, samples were thawed and each analyte was isolated using a method based on protein precipitation. The resulting supernatant was injected into an LC/MS/MS system optimized for detection of the compound of interest. Data were reported as quantitative drug concentrations as determined by standard calibration curve analysis. Using these optimized conditions, the typical lower limit of quantitation achieved was 1.00 ng/ml for both compounds.

recombinant human IDO = molecular target: T2, recombinant human IDO (Homo sapiens, UniProt P14902); test: IDO enzymatic assay; type: biochemical; settings: in vitro enzymatic assay
T2 construct: purchased R&D Systems (Minneapolis, MN, USA)
T2 sequence (P14902 whole entry): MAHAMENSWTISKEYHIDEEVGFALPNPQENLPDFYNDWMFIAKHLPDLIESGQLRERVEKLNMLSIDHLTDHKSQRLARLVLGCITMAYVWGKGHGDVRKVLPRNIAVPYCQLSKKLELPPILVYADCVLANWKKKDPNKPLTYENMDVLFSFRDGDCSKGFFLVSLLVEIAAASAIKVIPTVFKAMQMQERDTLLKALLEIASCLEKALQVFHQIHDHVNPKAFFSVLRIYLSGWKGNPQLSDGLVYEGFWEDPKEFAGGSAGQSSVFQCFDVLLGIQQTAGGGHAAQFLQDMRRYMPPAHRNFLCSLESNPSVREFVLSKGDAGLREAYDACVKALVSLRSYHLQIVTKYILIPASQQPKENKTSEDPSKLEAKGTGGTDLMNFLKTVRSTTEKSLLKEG
Experimental: IDO activity was determined as described by Takahashi et al.[25] using recombinant human IDO purchased from R&D Systems (Minneapolis, MN, USA). The yellow pigment derived from kynurenine was measured at 490 nm using the Spectramax microplate reader (Molecular Devices).

[4] = molecular target: T3, RIP1 (ATP-binding pocket) (Homo sapiens, UniProt Q13546); test: Fluorescent polarization (FP) binding assay
T3 construct: GST-RipK1 (1–375) was purified; made in house
T3 sequence (Q13546 1-375): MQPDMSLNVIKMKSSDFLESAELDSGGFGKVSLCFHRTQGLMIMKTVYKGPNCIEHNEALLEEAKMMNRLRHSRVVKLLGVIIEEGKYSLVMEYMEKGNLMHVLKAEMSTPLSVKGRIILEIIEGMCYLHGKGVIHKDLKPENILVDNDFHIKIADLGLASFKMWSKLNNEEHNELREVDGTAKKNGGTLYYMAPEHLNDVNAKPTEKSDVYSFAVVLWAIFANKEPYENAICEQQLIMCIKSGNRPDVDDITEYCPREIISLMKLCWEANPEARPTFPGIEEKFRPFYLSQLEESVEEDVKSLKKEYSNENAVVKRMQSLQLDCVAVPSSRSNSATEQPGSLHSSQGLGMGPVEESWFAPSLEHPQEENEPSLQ
Experimental: A FP-based binding assay was developed to quantitate interaction of novel test compounds at the ATP-binding pocket of RIP1, by competition with a fluorescently labeled ATP-competitive ligand, as previously described.[18] In brief, GST-RipK1 (1–375) was purified and was used at a final assay concentration of 10 nM.

[5] = test system: mouse fibrosarcoma L929 cells; test: TNF+zVAD-induced necroptosis, CellTiter-Glo; type: cell-based; settings: overnight, read-out: IC50 blocking necroptosis
Experimental: (§1) Mouse fibrosarcoma L929 cells (ATCC# CCL-1) and human monocytic U937 cells (ATCC# CRL-1593.2) were cultured in RPMI media supplemented with 10% heat-inactivated FBS, 100 U/ml penicillin and […] streptomycin. BMDM were prepared from C57BL/6 mice by differentiation with 10 ng/ml M-CSF (R&D Systems) for 7 days and cultured in DMEM medium supplemented with 10% heat-inactivated FBS, 100 U/ml penicillin, 100 μg/ml streptomycin and 0.25 μg/ml amphotericin. Primary human neutrophils were isolated from human blood following the standard method comprised of sequential sedimentation in dextran, density centrifugation in Ficoll–Hypaque and lysis of contaminating red blood cells.
(§2) […] To evaluate the effect of RIP1 inhibitors, cells were pretreated with compound (dose–response) for 30 min. Induced cell death was evaluated 19–21 h later by measuring cellular ATP levels using CellTiter-Glo Luminescent Cell Viability assay (Promega, Fitchburg, WI, USA). To induce necroptosis in neutrophils, freshly isolated human neutrophils were stimulated with TNF (10 ng/ml), QVD-Oph (50 μM) and SMAC mimetic (100 nM). Induced cell death was evaluated as above.

[6] = test system: human monocytic U937 cells; test: TNF+zVAD-induced necroptosis, CellTiter-Glo; type: cell-based; settings: U-937, U937, overnight, read-out: IC50 blocking necroptosis
Experimental: as §1, §2

CN1C(=O)C(Cc2c[nH]c3ccccc23)NC1=S (stereo not shown) [Nec-1, Necrostatin-1, reference compound]
IC50 (RIP1 kinase; read-out: IC50 blocking RIP1 kinase activity): 1000 nM | in vivo half-life ([1]; ref 23): short | metabolic stability ([1]; ref 23): quite limited | IDO inhibition ([2]; ref 22): known to inhibit | IDO inhibition ([2]; ref 25): potent inhibitor | protection from TNF+zVAD-induced temperature loss (C57BL/6 mice; 0.2 mg/kg i.p.): no effect | protection from TNF+zVAD-induced temperature loss (C57BL/6 mice; 2 mg/kg i.p.): minimal level of protection; also recorded: no significant protection | exposure compared with GSK′963 [3]: ~ 10 fold | effect on IDO activity (recombinant human IDO): no effect | IC50 [4]: 2000 nM | drop off in potency relative to GSK′963 in the FP binding assay [4]: ~ 70 fold | IC50 [5]: 1000 nM | IC50 [6]: 2000 nM

CN1C(=O)NC(Cc2c[nH]c3c(Cl)cccc23)C1=O (stereo not shown) [Nec-1s, 7-Cl-O-Nec-1]
pharmacokinetic properties ([1]; ref 24): improved pharmacokinetic properties | IDO activity ([2]; ref 24): lacks IDO activity

CC(C)(C)C(=O)N1N=CC[C@@H]1c1ccccc1 [GSK′962]
activity in blocking RIP1 kinase activity (RIP1 kinase): inactive | protection from TNF+zVAD-induced temperature loss (C57BL/6 mice; 20 mg/kg i.p.): no effect | activity in the FP binding assay [4]: no activity

CC1=CC(=O)c2ccccc2C1=O [menadione, reference compound]
effect on IDO activity (recombinant human IDO): inhibited enzyme activity with the expected potency
